From patent US20190022092A1, “Therapeutic Combinations of a BTK Inhibitor and a GITR Binding Molecule, a 4-1BB Agonist, or an OX40 Agonist” (Acerta Pharma B.V., priority 2015, published 2019)

Key:
[1] = test system: BCR; activation markers CD69 and CD86; test: In vivo potency: BCR stimulated with IgM, CD69 and CD86 expression by flow cytometry; details: mice gavaged, sacrificed 3 hours post-dose, compared with ibrutinib
Protocol: Mice were gavaged at increasing drug concentration and sacrificed at one time point (3 hours post-dose). BCR is stimulated with IgM and the expression of activation markers CD69 and CD86 are monitored by flow cytometry to determine EC50 values.

KPC pancreatic cancer = KPC pancreatic cancer model (tumor volumes, tumor tissue immune cells); format: in vivo; details: tumor tissues
CD8+ T cell = test: Cytotoxicity assay for CD8+ T cell function; format: cell-based; details: relative to vehicle
Source text: FIG. 38 illustrates the results of the cytotoxicity assay for CD8^+ T cell function.

[2] = GLP functional observation battery; format: in vivo; details: rats, doses through 300 mg/kg
Source text: Formula (2) was well tolerated in standard in vivo Good Laboratory Practices (GLP) studies of pharmacologic safety.

CYP3A4 = CYP3A4 (Homo sapiens, UniProt P08684); test: In vitro loss of parent drug as catalyzed by CYPs; format: in vitro ADME
Chain of CYP3A4 (P08684 whole entry): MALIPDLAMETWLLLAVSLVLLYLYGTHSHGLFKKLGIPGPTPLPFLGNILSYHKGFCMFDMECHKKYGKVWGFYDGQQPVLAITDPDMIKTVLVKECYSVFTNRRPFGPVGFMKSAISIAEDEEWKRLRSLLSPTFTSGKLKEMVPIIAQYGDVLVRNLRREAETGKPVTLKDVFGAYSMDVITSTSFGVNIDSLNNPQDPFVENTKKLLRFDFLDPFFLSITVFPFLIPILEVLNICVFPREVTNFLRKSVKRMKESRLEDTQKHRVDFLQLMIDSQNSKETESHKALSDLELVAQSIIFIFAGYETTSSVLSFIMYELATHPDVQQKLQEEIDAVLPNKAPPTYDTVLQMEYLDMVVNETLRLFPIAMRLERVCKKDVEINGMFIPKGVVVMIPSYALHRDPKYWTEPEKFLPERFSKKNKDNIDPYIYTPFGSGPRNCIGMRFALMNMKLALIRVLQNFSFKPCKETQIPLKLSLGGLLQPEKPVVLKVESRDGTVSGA

[3] = In vitro metabolism in hepatocytes with 14C-labeled drug; format: in vitro ADME, and human; details: mouse, rat, dog, rabbit, monkey, human hepatocytes
[4] = Preliminary evaluation of metabolism in plasma, bile and urine; format: in vivo; details: rats, dogs, monkeys
CYP enzymes = test: Nonclinical CYP interaction studies; format: in vitro ADME
[5] = test system: pancreatic cancer (KPC mice); test: KPC pancreatic cancer mouse model; format: in vivo
Source text: The KPC mouse model recapitulates many of the molecular, histopathologic, and clinical features of human disease (Westphalen and Olive, Cancer J. 2012, 18, 502-510). Mice were enrolled after identification of spontaneously appearing tumors in the pancreas that were ≥100 mm^3 (as assessed by high-resolution ultrasonography).

NSCLC (KrasLA2) = test: KrasLA2 genetic tumor model of NSCLC; format: in vivo; details: KrasLA2 mice, 15 mg/kg
Source text: The model is designed to have sporadic expression in single cells of G12D mutant Kras off its own promoter triggered by spontaneous intrachromosomal recombination. Johnson, et al., Nature 2001, 410, 1111-16. While the mutant Kras protein is expressed in a few cells in all tissues, tumor development is seen only in the lung at high penetrance.

BTK = target: T1, BTK (Mus musculus, UniProt P35991); test: Molecular probe assay of BTK occupancy in MDSCs of tumor bearing PDA mice; format: in vivo; details: 15 mg/kg BID, Day 8, 4 hours post dose
T1 construct: endogenous in cells; host or cells: granulocytic and monocytic MDSCs from tumor-bearing PDA mice
T1 sequence (P35991 whole entry): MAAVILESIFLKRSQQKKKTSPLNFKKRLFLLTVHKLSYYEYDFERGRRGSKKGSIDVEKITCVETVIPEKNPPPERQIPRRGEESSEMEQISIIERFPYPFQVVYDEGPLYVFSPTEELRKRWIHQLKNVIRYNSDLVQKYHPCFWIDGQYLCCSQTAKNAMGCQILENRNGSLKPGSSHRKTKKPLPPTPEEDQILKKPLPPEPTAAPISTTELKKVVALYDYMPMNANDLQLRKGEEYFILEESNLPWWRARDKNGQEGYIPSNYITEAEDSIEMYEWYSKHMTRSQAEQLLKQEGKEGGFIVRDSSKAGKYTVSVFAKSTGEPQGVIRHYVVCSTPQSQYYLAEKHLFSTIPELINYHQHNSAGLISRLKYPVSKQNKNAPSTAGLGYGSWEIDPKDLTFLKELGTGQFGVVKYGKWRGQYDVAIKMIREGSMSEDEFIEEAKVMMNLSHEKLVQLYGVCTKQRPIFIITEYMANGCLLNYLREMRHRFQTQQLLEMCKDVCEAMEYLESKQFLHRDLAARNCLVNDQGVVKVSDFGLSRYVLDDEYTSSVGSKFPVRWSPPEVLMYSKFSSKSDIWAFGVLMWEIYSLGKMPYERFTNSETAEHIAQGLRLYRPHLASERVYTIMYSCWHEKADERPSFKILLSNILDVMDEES
Source text: A molecular probe assay was used to calculate the percent irreversible occupancy of total BTK.

Th17 and Treg cells = test: Th17 and Treg development of CD4+ T cells under skewing cytokines; format: cell-based
Protocol: Enriched CD4^+ T cells are plated on 24-well culture dishes that have been precoated 2 hr with 250 μL anti-TCRβ (0.5 μg/mL) plus anti-CD28 (5 μg/mL) at 37° C. in PBS. The cells are then supplemented with media containing BTK inhibitors along with the skewing cytokines as indicated in the following. The Th17 and Treg cultures are grown for 4 days before analysis. The cells are maintained for an additional 3 days with skewing cytokines (Th17; 20 ng/mL IL-6, 0.5 ng/mL TGF-β, 5 μg/mL IL-4, 5 μg/mL IFN-γ and Treg; 0.5 ng/mL TGF-β, 5 μg/mL IL-4, 5 μg/mL IFN-γ) and are supplemented with IL2 as a growth factor.

CD8+ T cells = test: CD8+ T cell viability on anti-TCR/anti-CD28 coated wells; format: cell-based; details: 4 days, neutral culture conditions
Protocol: Total T cells were plated on anti-TCR and anti-CD28 coated wells in the presence of both BTK inhibitors. Neutral culture conditions were used that will not polarize T cells to a helper lineage. […] Statistical significance was calculated using the Mann Whitney T-test.

[6] = test system: NK cells and MDSC subsets in peripheral blood; test: Flow cytometry of peripheral blood cell subsets in CLL patients; format: in vivo, human; details: patients with falling ALC counts; 28 days of dosing
Protocol: PBMCs were stained with monoclonal antibodies conjugated to fluorescent tags (flourochromes) to identify cell subsets via flow cytometry. Non-viable cells were excluded from the analysis using the dye 7-aminoactinomycin D (7-AAD). To produce the metric of percent change, the following steps were taken. First, each cell subset was defined by hierarchical flow cytometry gating. Then, the change in frequency (between day 1 and day 28) was calculated for each cell subset. MDSC subsets were measured as a % of all myeloid cells. T cell subsets were measured as a % of all CD3^+ cells, and NK cells were measured as a % of all live CD45^+ cells. […] A cycle is 28 days. A trend is observed wherein patients with decreasing ALC % had increasing MDSC (monocytic) %. This may include patients who had quickly resolving lymphocytosis and those with no initial lymphocytosis. […] This may include patients who had quickly resolving lymphocytosis and those having no initial lymphocytosis. The effects in FIG. 47 to FIG. 50 are observed in multiple cohorts, at doses including 100 mg BID, 200 mg QD, and 400 mg QD. In FIG. 51 and FIG. 52, the effects on NK cells and MDSC cells are compared to a number of other markers versus % change in ALC at C1D28 and C2D28. […] The effects on NK cells and MDSC cells are observed to be much more pronounced than on any of these other markers.

CC#CC(=O)N1CCC[C@H]1c1nc(-c2ccc(C(=O)Nc3ccccn3)cc2)c2c(N)nccn12 [Formula (2), (S)-4-(8-amino-3-(1-(but-2-ynoyl)pyrrolidin-2-yl)imidazo[1,5-a]pyrazin-1-yl)-N-(pyridin-2-yl)benzamide]
inhibition of expression of activation markers CD69 and CD86 [1]: more potent at inhibiting expression of activation makers than Formula (10) (ibrutinib) | immunosuppressive MDSCs (Gr1+Ly6CHi) (KPC pancreatic cancer): significantly reduced | immunosuppressive TAMs (CD11b+Ly6ClowF4/80+Csf1r+) (KPC pancreatic cancer): significantly reduced | immunosuppressive Tregs (CD4+CD25+FoxP3+) (KPC pancreatic cancer): significantly reduced | CD8+ T cell function as % cytotoxicity (CD8+ T cell): no effect on CD8^+ T cell function as measured by % cytotoxicity relative to vehicle | functional observation battery: neurobehavioral effects, body temperature [2]: no adverse effects | CYP responsible for metabolism (CYP3A4): metabolized by CYP3A4 | metabolites in hepatocytes [3]: two mono-oxidized metabolites and a glutathione conjugate | metabolic processes in plasma, bile, and urine [4]: oxidation, glutathione binding, and hydrolysis | potential for clinical drug-drug interactions via CYP enzymes (CYP enzymes): very unlikely to cause clinical drug-drug interactions | CD8+ cells in tumor tissues ([5]; 15 mg/kg BID): significant increase | MDSCs in tumor tissues ([5]; 15 mg/kg BID): significantly reduced | Tregs in tumor tissues ([5]; 15 mg/kg BID): significantly reduced | immunosuppressive TAMs in tumor tissues ([5]; 15 mg/kg BID): significantly reduced | survival at day 28 ([5]; 15 mg/kg BID orally): 5/6 | average tumor volume, day 28 ([5]; 15 mg/kg BID orally, day 28): 272 mm^3 | average tumor volume, predose ([5]; 15 mg/kg BID orally, predose): 165 mm^3 | tumor volumes versus vehicle (NSCLC (KrasLA2)): significant decrease | irreversible BTK occupancy in granulocytic and monocytic MDSCs (BTK): Complete BTK occupancy | Th17 development (Th17 and Treg cells): no adverse effect | Treg development (Th17 and Treg cells): no adverse effect | CD8+ T cell viability (CD8+ T cells): not observed | NK cells and monocytic MDSC subsets in peripheral blood [6]: increase in frequency
